Data taken from patent US20230321094A1, “COMBINATION THERAPIES WITH OLIG2 INHIBITORS” (Curtana Pharmaceuticals, Inc., priority 2020, published 2023).

System: NX18 cells
Experiment: Glioblastoma neurosphere cell viability with the test compound and an mTOR inhibitor, Cell TiterGlo
Type: cell-based
Settings: NX18 neurospheres, 72 hours, normalized to DMSO vehicle; for cytotoxicity at 0.01 µM: mTOR inhibitor alone, final concentration 10 nM, read-out: percent inhibition of cell viability, mTOR inhibitor alone; for percent inhibition of cell viability, Combined: named mTOR inhibitor (10 nM) combined with test compound @ 3 μM
Protocol: After another 72 hours, cell viability was determined using the Cell TiterGlo kit (#G7570, Promega, Madison. WI) following the manufacturer's instructions on a Tecan M200 Pro Plate Reader (Tecan, Mannedorf, CH). Percent viable cells were normalized against vehicle control (DMSO set as 100%).

| SMILES | cytotoxicity at 0.01 µM | percent inhibition of cell viability, Combined | cytotoxicity at 3 µM (test compound alone at 3 μM, read-out: percent inhibition of cell viability, Test compound @ 3 μM) |
| --- | --- | --- | --- |
| CO[C@H]1C[C@@H]2CC[C@@H](C)[C@@](O)(O2)C(=O)C(=O)N2CCCC[C@H]2C(=O)O[C@H]([C@H](C)C[C@@H]2CC[C@@H](OCCO)[C@H](OC)C2)CC(=O)[C@H](C)/C=C(\C)[C@@H](O)[C@@H](OC)C(=O)[C@H](C)C[C@H](C)/C=C/C=C/C=C/1C [Everolimus] | 45% | 60% |  |
| CO[C@H]1C[C@@H]2CC[C@@H](C)[C@@](O)(O2)C(=O)C(=O)N2CCCC[C@H]2C(=O)O[C@H]([C@H](C)C[C@@H]2CC[C@@H](O)[C@H](OC)C2)CC(=O)[C@H](C)/C=C(\C)[C@@H](O)[C@@H](OC)C(=O)[C@H](C)C[C@H](C)/C=C/C=C/C=C/1C [Rapamycin] | 41% | 61% |  |
| Cc1cc(NCCCN(C)C)nc(NC(=O)Nc2ccc(Cl)c(Cl)c2)n1 [Test compound] |  |  | 30% |
